Data set [1] concerns the target T1, IRE1a (Homo sapiens, UniProt O75460). Kind of data set: IRE1a Endoribonuclease Nanoluciferase Assay (XBP1 luciferase reporter in 293T cells). It counts as cell-based. More on the design: endogenous in cells; host or cells: 293T cells. To be noted: 293T cells transfected with XBP1 luciferase reporter plasmid, ER stressors +/- inhibitors. Here is the method:
Compounds disclosed herein were assessed for disruption of IRE1 signaling using a IRE1a Endoribonuclease Nanoluciferase Assay. Briefly, 2.5×10^6 293T cells were seeded in a 10 cm^2 tissue culture plate. About 24 hours later, the cells were transfected with Effectene. In a 15 mL tube, the following was added: 2 ug XBP1 luciferase reporter plasmid (PGK-Luc2-P2A-XBP1u-Nanoluciferase-PEST); 300 ul EC buffer; and 16 ul Enhancer, followed by incubation at room temp for 5 minutes. Next, 60 ul Effectene (Qiagen 301427) was added, followed by incubation at room temperature for 10 minutes. 2.6 mL cDMEM media was added. Old media was aspirated from the cells, followed by addition of 7 mL fresh media. Full transfection mixture was added dropwise to cells. Cells were incubated for 6 hours, followed by trypsinization, centrifugation and resuspension in 11 mL fresh cDMEM media. 100 uL of cells were plated per a well in a 96 well plate. A day later, ER stressors of choice +/− inhibitors were added. To harvest, media was aspirated from cells completely, then 50 uL 1× passive lysis buffer (Promega: E1941) was added per well and put on shaker (300 rpm) for 30 minutes at room temperature. […] Plates were read on luminometer, 1000 ms integration time per well. […] Plates were read on luminometer, 1000 ms second integration time per well. […]

Data set [2] concerns the target T1, IRE1a. As to the kind of experiment: In vitro FRET assay (XBP1 RNA probe cleavage). It counts as biochemical. To be noted: SignalChem IRE1a protein 2 nM, fluorescence 485/515 nm. How it is done: In vitro FRET assay was performed to evaluate the ability of select compounds to inhibit IRE1, the results of which are summarized in Table 3. To perform the in vitro FRET assay, 1× complete assay buffer (CAB; […], 50 mM sodium citrate pH 7.15, 1 mM magnesium acetate, 0.02% tween 20) was used to dilute SignalChem IRE1a protein to a final concentration of 2 nM. Selected compounds were serially diluted with DMSO in a non-binding black 384-well plate for a total of 15 ul in each well. 2 ul of the serially diluted compound or DMSO control were then added to new wells containing 98 ul of 1× CAB, for a total volume of 100 ul, 10 ul of which were then transferred to wells of a new plate. 5 ul of the diluted IRE1a was then added to each well. 5 ul of a […] XBP1 RNA probe was then added to each well. Fluorescence was then read over 30 minutes in kinetic mode (485/515 nm).
Two RNA probes were used, XBP1 wildtype (SEQ ID NO: 2) which is able to be spliced by active IRE1a or XBP1 mutant (SEQ ID NO: 3) which is unable to be spliced. Each probe contained a 5′ 6-FAM modification and a 3′ IOWA Black FQ modification.
A second FRET assay was performed to assess ATP-mediated inhibition. In this case, compounds and IRE1a were prepared and combined as discussed above, with the addition of ATP up to 1 mM final concentration. […] Plates were then read over 30 minutes in kinetic mode (485/515 nm).

Data set [3] is described as follows: Microsome stability assay. It counts as in vitro ADME. To be noted: liver microsomes, 1 μM, 37° C., 0.5 mg/ml microsomal protein. How it is done: The formic acid salt of a compound from Table 1 is tested under the microsome stability assay outlined below. Test compounds are incubated at 37° C. with liver microsomes (pooled from multiple donors) at 1 μM in the presence of a NADPH regenerating system at 0.5 mg/ml microsomal protein. Positive controls included Testosterone (3A4 substrate), Propafenone (2D6) and Diclofenac (2C9), which are incubated with microsomes in the presence of an NADPH regenerating system. At time points (0, 5, 10, 20, 30 and 60 minutes), samples are removed and immediately mixed with cold acetonitrile containing internal standard (IS). Test compounds incubated with microsomes without the NADPH regenerating system for 60 min is also included. A single point for each test condition (n=1) is obtained, and samples are analyzed by LC/MS/MS. Disappearance of the test compound is assessed based on peak area ratios of analyte/IS (no standard curve). […] Compound 1 was tested and had 45% or more of parent compound remaining after a 60 minute incubation.
A general note: Liver microsomes are a subcellular fraction often used to study metabolism.

Broadly, the EC50 is the concentration needed to bring the measured effect to its halfway point. Read a low EC50 as greater potency. For orientation: IC50 means the concentration that gives 50% inhibition. Low readings indicate greater potency, high ones weaker potency.

Structures are written as SMILES.

T1 sequence (O75460 19-977): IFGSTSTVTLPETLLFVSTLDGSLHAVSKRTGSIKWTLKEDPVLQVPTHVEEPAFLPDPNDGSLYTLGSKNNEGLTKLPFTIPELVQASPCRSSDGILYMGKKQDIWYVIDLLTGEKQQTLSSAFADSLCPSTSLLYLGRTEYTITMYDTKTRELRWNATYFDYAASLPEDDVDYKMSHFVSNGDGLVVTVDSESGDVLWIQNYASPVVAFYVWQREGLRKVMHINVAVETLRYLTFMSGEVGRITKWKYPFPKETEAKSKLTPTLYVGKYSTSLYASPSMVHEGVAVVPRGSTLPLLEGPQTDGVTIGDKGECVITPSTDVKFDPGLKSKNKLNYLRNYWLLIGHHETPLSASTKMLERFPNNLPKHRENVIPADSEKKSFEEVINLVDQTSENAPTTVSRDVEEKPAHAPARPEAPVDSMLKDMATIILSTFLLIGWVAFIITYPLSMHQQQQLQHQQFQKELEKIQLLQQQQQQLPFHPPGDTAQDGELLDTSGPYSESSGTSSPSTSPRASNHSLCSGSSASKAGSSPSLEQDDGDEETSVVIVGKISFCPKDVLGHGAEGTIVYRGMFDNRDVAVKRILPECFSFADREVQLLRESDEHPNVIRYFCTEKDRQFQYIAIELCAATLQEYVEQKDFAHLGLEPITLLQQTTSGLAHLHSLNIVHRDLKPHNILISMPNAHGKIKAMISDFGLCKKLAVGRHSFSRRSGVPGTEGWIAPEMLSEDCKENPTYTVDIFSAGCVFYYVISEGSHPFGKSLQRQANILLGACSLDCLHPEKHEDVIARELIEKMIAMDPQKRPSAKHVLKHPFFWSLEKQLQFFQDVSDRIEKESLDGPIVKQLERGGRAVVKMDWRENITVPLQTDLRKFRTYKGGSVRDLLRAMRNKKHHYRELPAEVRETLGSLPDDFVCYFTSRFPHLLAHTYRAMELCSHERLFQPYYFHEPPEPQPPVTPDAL

As for `CCc1cc(-c2ccc(NS(=O)(=O)c3cnccc3Cl)nc2C)cc2cnc(N[C@H]3CC[C@H](N(C)C)CC3)nc12` [Compound 1, 4-chloro-N-(5-(2-(((1r,4r)-4-(dimethylamino)cyclohexyl)-amino)-8-ethylquinazolin-6-yl)-6-methylpyridin-2-yl)-pyridine-3-sulfonamide], the EC50 in data set [1] was not above 5 nM. This compound also yielded a 50% inhibitory concentration (IC50) in data set [2] not above 5 nM. Further, in data set [3], the “parent compound remaining after a 60 minute incubation” value is on record as not below 45%.

With `CCc1cc(-c2ccc(NS(=O)(=O)c3ccccc3Cl)nc2C)nc2cnc(N[C@H]3CC[C@H](N(C)C)CC3)nc12` [Compound 2, 2-chloro-N-(5-(2-(((1r,4r)-4-(dimethylamino)cyclohexyl)-amino)-8-ethylpyrido[3,2-d]-pyrimidin-6-yl)-6-methyl-pyridin-2-yl)benzenesulfon-amide], the concentration for a half-maximal effect (EC50) in data set [1] was not above 5 nM. Moreover, the 50% inhibitory concentration (IC50) in data set [2] was not above 5 nM.

The values above are taken from patent US12071426B2, “IRE1 small molecule inhibitors” (Cornell University, priority 2018, dated 2024).
